Laboratory results taken from patent US7652005B2, “Tricyclic δ-opioid modulators” (Janssen Pharmaceutica N.V., priority 2004, dated 2010).

Columns and labels:
mu opioid receptor = target: T1, mu opioid receptor (Rattus norvegicus, UniProt P33535); test: Rat Brain Mu Opioid Receptor Binding Assay; conditions: rat forebrain membrane preparation; [3H]DAMGO, 25° C., 2.5 h
T1 construct: Following incubation with the mu selective peptide ligand, ˜0.8 nM [^3H]DAMGO; from tissue; host or cells: rat forebrain homogenate (male Wistar rats), particulate membrane preparation

delta opioid receptor = target: T2, delta opioid receptor (Rattus norvegicus, UniProt P33533); test: Rat Brain Delta Opioid Receptor Binding Assay; conditions: rat forebrain membrane preparation; [3H]DPDPE or [3H]naltrindole, 25° C., 2.5 h
T2 construct: from tissue; host or cells: rat forebrain homogenate (male Wistar rats), particulate membrane preparation
T2 sequence (P33533 whole entry): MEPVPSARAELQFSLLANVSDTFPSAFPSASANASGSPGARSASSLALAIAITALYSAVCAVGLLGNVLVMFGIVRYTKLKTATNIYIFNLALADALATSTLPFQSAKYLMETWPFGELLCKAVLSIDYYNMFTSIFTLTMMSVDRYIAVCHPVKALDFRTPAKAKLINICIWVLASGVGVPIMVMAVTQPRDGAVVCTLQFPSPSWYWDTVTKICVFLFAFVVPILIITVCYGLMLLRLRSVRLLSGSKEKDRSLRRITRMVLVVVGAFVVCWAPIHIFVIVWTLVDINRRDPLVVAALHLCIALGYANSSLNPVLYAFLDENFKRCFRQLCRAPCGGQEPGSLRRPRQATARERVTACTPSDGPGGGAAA

T1 sequence (P33535 whole entry): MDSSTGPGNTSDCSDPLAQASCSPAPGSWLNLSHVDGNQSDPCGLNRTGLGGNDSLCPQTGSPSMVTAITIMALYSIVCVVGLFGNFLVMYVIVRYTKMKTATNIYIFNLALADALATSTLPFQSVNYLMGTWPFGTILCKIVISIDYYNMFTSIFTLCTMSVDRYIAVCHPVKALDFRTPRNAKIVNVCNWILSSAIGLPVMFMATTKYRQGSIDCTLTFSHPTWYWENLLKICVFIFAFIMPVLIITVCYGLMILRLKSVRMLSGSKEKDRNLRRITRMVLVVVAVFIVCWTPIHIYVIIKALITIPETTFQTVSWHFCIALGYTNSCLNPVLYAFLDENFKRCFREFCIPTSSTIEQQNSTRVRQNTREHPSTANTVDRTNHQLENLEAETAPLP

Q: For CC(C)=CCN1[C@@H]2CC[C@H]1CC(N1c3ccccc3Sc3cc(-c4ccncc4)ccc31)C2 (mixture of isomers) [Compound 10i, 10-[8-(3-Methyl-but-2-enyl)-8-aza-bicyclo[3.2.1]oct-3-yl]-3-pyridin-4-yl-10H-phenothiazine], which Ki (mu opioid receptor) is on record?
A: 0.317 µM

Q: What about the Ki (delta opioid receptor) of the same compound?
A: 0.949 µM

Q: Which Ki (mu opioid receptor) does the source give for CC(=O)Nc1ccccc1-c1ccc2c(c1)Sc1ccccc1N2C1C[C@H]2CC[C@@H](C1)N2Cc1ccoc1 (mixture of isomers) [Compound 7i, N-{2-[10-(8-Furan-3-ylmethyl-8-aza-bicyclo[3.2.1]oct-3-yl)-10H-phenothiazin-3-yl]-phenyl}-acetamide] here?
A: 0.554 µM

Q: What about the Ki (delta opioid receptor) of the same compound?
A: 0.123 µM

Q: Which results are given for c1cncc(-c2ccc3c(c2)Sc2ccccc2N3C2C[C@H]3CC[C@@H](C2)N3Cc2ccoc2)c1 (mixture of isomers) [Compound 6i, 10-(8-Furan-3-ylmethyl-8-aza-bicyclo[3.2.1]oct-3-yl)-3-pyridin-3-yl-10H-phenothiazine]?
A: Ki (mu opioid receptor): 1.06 µM; Ki (delta opioid receptor): 0.282 µM

Q: With O=c1[nH]c(-c2ccc3c(c2)Oc2ccccc2N3[C@H]2C[C@H]3CC[C@@H](C2)N3CCc2ccccc2)no1 [Compound 7d, Endo-3-[10-(8-Phenethyl-8-aza-bicyclo[3.2.1]oct-3-yl)-10H-phenoxazin-3-yl]-4H-[1,2,4]oxadiazol-5-one] as the compound, how does the Ki (mu opioid receptor) read?
A: 0.123 µM

Q: What about the Ki (delta opioid receptor) of the same compound?
A: 2.63 µM

Q: With COC(=O)c1ccc2c(c1)Oc1ccccc1N2C1CC2CCC(C1)N2C (stereo not drawn) [Compound 2a, 10-(8-Methyl-8-aza-bicyclo[3.2.1]oct-3-yl)-10H-phenoxazine-3-carboxylic acid methyl ester] as the compound, how does the Ki (mu opioid receptor) read?
A: 5.15 µM

Q: And the Ki (delta opioid receptor)?
A: 0.697 µM

Q: How did the Ki (mu opioid receptor) turn out when CC(=O)Nc1ccccc1-c1ccc2c(c1)Sc1ccccc1N2C1C[C@H]2CC[C@@H](C1)N2C (mixture of isomers) [Compound 16i, N-{2-[10-(8-Methyl-8-aza-bicyclo[3.2.1]oct-3-yl)-10H-phenothiazin-3-yl]-phenyl}-acetamide] was run?
A: 2.65 µM

Q: What about the Ki (delta opioid receptor) of the same compound?
A: 1.45 µM
